For 59 compounds, DSF results are on record in patent US20260285857A1, “BICYCLIC AND HETEROCYCLIC AMIDE COMPOUNDS” (priority 2024, published 2026).

In this assay the test system is immunoglobulin light chain protein WIL-FL T46L. The experiment in a line: Differential scanning fluorimetry (thermal shift) assay. To be noted: Table A; temperature shift [Tm]compound-[Tm]vehicle; recombinant WIL-FL T46L. Format: binding. (In general: Differential scanning fluorimetry follows unfolding on heating by fluorescence.)
Regarding `Cc1cc(N2CC[C@](C)(c3ccccc3)C2)cn2nc(C34COC(C3)C4C(N)=O)nc12` (some centres unmarked) [Compound 69], the DSF result was “**** (>1.5-2.5° C.=****)”.

For `Cc1cnc(C2C3COC2(c2nc4c(C)cc(N5CC[C@](C)(c6ccccc6)C5)cn4n2)C3)[nH]1` (some centres unmarked) [Compound 70], the DSF result is reported as “***** (>2.5° C.=*****)”.

Take `Cc1cc(N2CC[C@](C)(c3ccccc3)C2)cn2nc(C34CC(CO3)C4C(=O)NCC(C)(C)O)nc12` (some centres unmarked) [Compound 71]: the DSF entry was “***** (>2.5° C.=*****)”.

Consider `Cc1cc(N2CC[C@](C)(c3ccccc3)C2)cn2nc(C34CC(CO3)C4C(C)(C)O)nc12` (some centres unmarked) [Compound 73], for which the DSF result is reported as “***** (>2.5° C.=*****)”.

For the compound `Cc1n[nH]c(C2C3COC2(c2nc4c(C)cc(N5CC[C@](C)(c6ccccc6)C5)cn4n2)C3)n1` (some centres unmarked) [Compound 74], the DSF entry is given as “***** (>2.5° C.=*****)”.

`Cc1nnc(C2C3COC2(c2nc4c(C)cc(N5CC[C@](C)(c6ccccc6)C5)cn4n2)C3)o1` (some centres unmarked) [Compound 75]: the DSF result was “***** (>2.5° C.=*****)”.

Consider `Cc1cc(N2CC[C@](C)(c3ccccc3)C2)cn2nc(C34CC(CO3)C4c3nn[nH]n3)nc12` (some centres unmarked) [Compound 76], for which the DSF entry is listed as “***** (>2.5° C.=*****)”.

On to `Cc1cc(N2CC[C@](C)(c3ccccc3)C2)cn2nc(C34CC(CO3)C4N3CC4(CC4)NC3=O)nc12` (some centres unmarked) [Compound 78], for which the DSF result is on record as “***** (>2.5° C.=*****)”.

As to `Cc1cc(N2CC[C@](C)(c3ccccc3)C2)cn2nc(C34CC(CO3)C4N3C(=O)NC(=O)C3(C)C)nc12` (some centres unmarked) [Compound 79], the DSF result is listed as “***** (>2.5° C.=*****)”.

Regarding `Cc1cc(N2CC[C@](C)(c3ccccc3)C2)cn2nc(C34CC(CO3)C4CN)nc12` (some centres unmarked) [Compound 80], the DSF result is “***** (>2.5° C.=*****)”.

Turning to `CCC(=O)NCC1C2COC1(c1nc3c(C)cc(N4CC[C@](C)(c5ccccc5)C4)cn3n1)C2` (some centres unmarked) [Compound 81], the DSF entry is reported as “***** (>2.5° C.=*****)”.

Consider `Cc1cc(N2CC[C@](C)(c3ccccc3)C2)cn2nc(C34CC(CO3)C4Cn3ncnc3C)nc12` (some centres unmarked) [Compound 82], for which the DSF entry is “***** (>2.5° C.=*****)”.

For the compound `Cc1ncn(CC2C3COC2(c2nc4c(C)cc(N5CC[C@](C)(c6ccccc6)C5)cn4n2)C3)n1` (some centres unmarked) [Compound 83], the DSF result is given as “**** (>1.5-2.5° C.=****)”.

With `Cc1cc(N2CC[C@](C)(c3ccccc3)C2)cn2nc(C34CC(CO3)C4CN3CCNC(=O)C3)nc12` (some centres unmarked) [Compound 84], the DSF result is reported as “***** (>2.5° C.=*****)”.

On to `Cc1cc(N2CC[C@](C)(c3ccccc3)C2)cn2nc(C34CC(CO3)C4CC(N)=O)nc12` (some centres unmarked) [Compound 85], for which the DSF entry is reported as “***** (>2.5° C.=*****)”.

As to `Cc1cc(N2CC[C@](C)(c3ccccc3)C2)cn2nc(C34CC(CO3)C4Cc3ncnn3C)nc12` (some centres unmarked) [Compound 86], the DSF entry is “***** (>2.5° C.=*****)”.

Turning to `Cc1nn(CC2C3COC2(c2nc4c(C)cc(N5CC[C@](C)(c6ccccc6)C5)cn4n2)C3)c(=O)[nH]1` (some centres unmarked) [Compound 87], the DSF result is recorded as “***** (>2.5° C.=*****)”.

Turning to `Cc1cc(N2CC[C@](C)(c3ccccc3)C2)cn2nc(C34CC(CO3)C4Cn3cn[nH]c3=O)nc12` (some centres unmarked) [Compound 88], the DSF entry is reported as “***** (>2.5° C.=*****)”.

For the compound `Cc1cc(N2CC[C@](C)(c3ccccc3)C2)cn2nc(C34CC(CO3)C4Cn3cnn(C)c3=O)nc12` (some centres unmarked) [Compound 89], the DSF entry was “***** (>2.5° C.=*****)”.

`Cc1cc(N2CC[C@](C)(c3ccccc3)C2)cn2nc(C34CC(CO3)C4Cn3cnc(C(N)=O)n3)nc12` (some centres unmarked) [Compound 90]: the DSF entry was “**** (>1.5-2.5° C.=****)”.

Consider `Cc1cc(N2CC[C@](C)(c3ccccc3)C2)cn2nc(C34CC(CO3)C4Cn3cc(C(=O)O)nn3)nc12` (some centres unmarked) [Compound 91], for which the DSF result is “***** (>2.5° C.=*****)”.

As to `Cc1cc(N2CC[C@](C)(c3ccccc3)C2)cn2nc(C34CC(CO3)C4Cn3cc(C(N)=O)nn3)nc12` (some centres unmarked) [Compound 92], the DSF entry is “***** (>2.5° C.=*****)”.

In the case of `CCS(=O)(=O)Nc1n[nH]c(C2C3COC2(c2nc4c(C)cc(N5CC[C@](C)(c6ccccc6)C5)cn4n2)C3)n1` (some centres unmarked) [Compound 93], the DSF result is “***** (>2.5° C.=*****)”.

For `Cc1ncn(CC23CC(C(=O)O)(C2)C(c2nc4c(C)cc(N5CC[C@](C)(c6ccccc6)C5)cn4n2)O3)n1` (some centres unmarked) [Compound 94], the DSF result is “***** (>2.5° C.=*****)”.

In the case of `Cc1ncn(CC23CC(C(N)=O)(C2)C(c2nc4c(C)cc(N5CC[C@](C)(c6ccccc6)C5)cn4n2)O3)n1` (some centres unmarked) [Compound 95], the DSF entry is “***** (>2.5° C.=*****)”.

`Cc1cc(OCC2(c3ccccc3)CC2)cn2nc(C34CC(CO3)C4N)nc12` (centres unmarked) [Compound 96]: the DSF entry is reported as “**** (>1.5-2.5° C.=****)”.

For the compound `Cc1cc(OC[C@H](C)c2ccccc2)cn2nc(C34CC(CO3)C4N)nc12` (some centres unmarked) [Compound 98], the DSF entry is reported as “*** (>1-1.5° C.=***)”.

In the case of `Cc1cc(N2CCC(C)(c3nccs3)C2)cn2nc(C(=O)N3CC[C@@]4(CCN(c5cccc(C(=O)O)n5)C4)C3)nc12` (some centres unmarked) [Compound 99], the DSF result is listed as “**** (>1.5-2.5° C.=****)”.

For `Cc1cc(N2CC[C@](C)(c3ccccc3)C2)cn2nc(C(=O)NCC(C)(C)O)nc12` [Compound 100], the DSF entry is given as “***** (>2.5° C.=*****)”.

`Cc1cc(N2CC[C@](C)(c3ccccc3)C2)cn2nc(C(=O)NC3CCNC3)nc12` (some centres unmarked) [Compound 101]: the DSF entry was “***** (>2.5° C.=*****)”.

For the compound `Cc1cc(N2CC[C@](C)(c3ccccc3)C2)cn2nc(C(=O)N[C@@H]3CCNC3)nc12` [Compound 102], the DSF entry is “***** (>2.5° C.=*****)”.

For the compound `Cc1cc(N2CC[C@](C)(c3ccccc3)C2)cn2nc(C(=O)N(C)[C@H]3CCNC3)nc12` [Compound 103], the DSF entry is given as “***** (>2.5° C.=*****)”.

For `Cc1cc(N2CC[C@](C)(c3ccccc3)C2)cn2nc(C(=O)NC3CCC(O)(C(F)(F)F)C3)nc12` (some centres unmarked) [Compound 104], the DSF entry is “***** (>2.5° C.=*****)”.

For the compound `Cc1cc(N2CC[C@](C)(c3ccccc3)C2)cn2nc(C(=O)N[C@H]3CC[C@H](O)C3)nc12` [Compound 105], the DSF entry is “***** (>2.5° C.=*****)”.

`Cc1cc(N2CC[C@](C)(c3ccccc3)C2)cn2nc(C(=O)NCC3(O)COC3)nc12` [Compound 106]: the DSF entry was “***** (>2.5° C.=*****)”.

Take `COC(C)(C)CNC(=O)c1nc2c(C)cc(N3CC[C@](C)(c4ccccc4)C3)cn2n1` [Compound 107]: the DSF result is “***** (>2.5° C.=*****)”.

In the case of `CCC(=O)N1CC(O)C(NC(=O)c2nc3c(C)cc(N4CC[C@](C)(c5ccccc5)C4)cn3n2)C1` (some centres unmarked) [Compound 108], the DSF result is recorded as “***** (>2.5° C.=*****)”.

Consider `Cc1cc(N2CC[C@](C)(c3ccccc3)C2)cn2nc(C(=O)NC3CCS(=O)(=O)C3)nc12` (some centres unmarked) [Compound 109], for which the DSF entry is “***** (>2.5° C.=*****)”.

Regarding `Cc1cc(N2CC[C@](C)(c3ccccc3)C2)cn2nc(C(=O)NC3CN(CC(=O)O)CC3O)nc12` (some centres unmarked) [Compound 110], the DSF entry was “***** (>2.5° C.=*****)”.

Take `Cc1cc(N2CC[C@](C)(c3ccccc3)C2)cn2nc(C(=O)NC34CCC(O)(C3)C4)nc12` [Compound 111]: the DSF result is recorded as “***** (>2.5° C.=*****)”.

Regarding `Cc1cc(N2CC[C@](C)(c3ccccc3)C2)cn2nc(C(=O)NC3CC4(C3)CC(C(=O)O)C4)nc12` (some centres unmarked) [Compound 112], the DSF entry is reported as “***** (>2.5° C.=*****)”.

In the case of `Cc1cc(N2CC[C@](C)(c3ccccc3)C2)cn2nc(C(=O)N3CCC4(COC4)C3)nc12` [Compound 113], the DSF entry is reported as “***** (>2.5° C.=*****)”.

For the compound `Cc1cc(N2CC[C@](C)(c3ccccc3)C2)cn2nc(C(=O)N(C)[C@@H]3CCNC3)nc12` [Compound 114], the DSF entry is reported as “***** (>2.5° C.=*****)”.

Regarding `Cc1cc(N2CC[C@](C)(c3ccccc3)C2)cn2nc(C(=O)N3C[C@@H](O)[C@@H](O)C3)nc12` [Compound 115], the DSF entry is “***** (>2.5° C.=*****)”.

On to `Cc1cc(N2CC[C@](C)(c3ccccc3)C2)cn2nc(C(=O)NCC3(O)CCOCC3)nc12` [Compound 116], for which the DSF entry is on record as “***** (>2.5° C.=*****)”.

With `Cc1cc(N2CC[C@](C)(c3ccccc3)C2)cn2nc(C(=O)NC3CNCC3O)nc12` (some centres unmarked) [Compound 117], the DSF result is “***** (>2.5° C.=*****)”.

For the compound `Cc1cc(N2CC[C@](C)(c3ccccc3)C2)cn2nc(C(=O)NC3CCOC3)nc12` (some centres unmarked) [Compound 118], the DSF entry is “***** (>2.5° C.=*****)”.

As to `Cc1cc(N2CC[C@](C)(c3ccccc3)C2)cn2nc(C(=O)NCCN3C[C@H](O)[C@@H](O)C3)nc12` [Compound 119], the DSF entry is reported as “***** (>2.5° C.=*****)”.

Turning to `Cc1cc(N2CC[C@](C)(c3ccccc3)C2)cn2nc(C(=O)NCC3(O)CC3)nc12` [Compound 120], the DSF entry was “***** (>2.5° C.=*****)”.

Take `Cc1cc(N2CC[C@](C)(c3ccccc3)C2)cn2nc(C(=O)N[C@H]3COC[C@@H]3F)nc12` [Compound 121]: the DSF entry is given as “***** (>2.5° C.=*****)”.

Take `Cc1cc(N2CC[C@](C)(c3ccccc3)C2)cn2nc(C(=O)NCC34COC(C3)C4)nc12` [Compound 122]: the DSF result is given as “***** (>2.5° C.=*****)”.

For the compound `Cc1cc(N2CC[C@](C)(c3ccccc3)C2)cn2nc(C(=O)NC34COC(C(C)(C)O)(C3)C4)nc12` [Compound 123], the DSF entry is listed as “***** (>2.5° C.=*****)”.

As to `Cc1cc(N2CC[C@](C)(c3ccccc3)C2)cn2nc(C(=O)N3CC4CC3CO4)nc12` (some centres unmarked) [Compound 124], the DSF result is “***** (>2.5° C.=*****)”.

For `COC(=O)[C@]1(C)CCN(C(=O)c2nc3c(C)cc(N4CC[C@](C)(c5ccccc5)C4)cn3n2)C1` [Compound 125], the DSF entry is “***** (>2.5° C.=*****)”.

As for `Cc1cc(N2CC[C@](C)(c3ccccc3)C2)cn2nc(C(=O)N3CC[C@@](C)(C(=O)O)C3)nc12` [Compound 126], the DSF result is given as “***** (>2.5° C.=*****)”.

`Cc1cc(N2CC[C@](C)(c3ccccc3)C2)cn2nc(C(=O)NC34COC(C#N)(C3)C4)nc12` [Compound 127]: the DSF result was “***** (>2.5° C.=*****)”.

Regarding `Cc1cc(N2CC[C@](C)(c3ccccc3)C2)cn2nc(C(=O)N3CC(O)C3)nc12` [Compound 128], the DSF result was “***** (>2.5° C.=*****)”.

On to `Cc1cc(N2CC[C@](C)(c3ccccc3)C2)cn2nc(C(=O)NC3C4COCC43)nc12` (some centres unmarked) [Compound 129], for which the DSF entry is “***** (>2.5° C.=*****)”.

As for `Cc1cc(N2CC[C@](C)(c3ccccc3)C2)cn2nc(C(=O)NCCC(C)(C)O)nc12` [Compound 130], the DSF result is on record as “***** (>2.5° C.=*****)”.
